For experiment [1] the following is noted: background statement; cited from earlier work.
Experiment [2] relates to E. coli strain JC7623dxr:CAT. Briefly: growth of dxr-disrupted E. coli strain JC7623dxr:CAT (ME auxotrophy, complementation studies). In kind it is cell-based, Escherichia coli. The settings on record: strain JC7623dxr:CAT carrying plasmid pBAD-DXR or pBAD-GFPuv. An excerpt: The region extending from the 5′-region of the dxr gene to the 3′-flanking region of the yaeS gene was amplified by PCR using genomic DNA isolated from the wild type E. coli strain-W3110 (Kohara et al., 1987) and the primers P1(5′-CTCTGGATGT CATATGAAGCAACTC-3′ (SEQ ID NO:3); the underlined ATG corresponds to the translation start codon of the dxr gene) and P2 (5′-CCGCATAACACCGCCAACC-3′ (SEQ ID NO:4); located at the 3′-flanking region of the yaeS gene). The reaction mixture for the PCR was prepared in a final volume of 50 μl, containing the DNA template (100 ng), 0.5 μM of each primer, 200 μM of each deoxynucleoside triphosphate, 20 mM of Tris-HCl adjusted to pH 8.8, 2 mM Of MgSO4, 10 mM of KCI, 10 mM of (NH4)2SO4, 0.1 mg/ml of BSA and 0.1% Triton X-100. The sample was covered with mineral oil, incubated at 94° C. for 3 min and cooled to 80° C. Pfu DNA polymerase (1.25 units, Stratagene) was added and the reaction mixture was incubated for 30 cycles consisting of 45 sec at 94° C., 45 sec at 59° C. and 10 min at 72° C., followed by a final step of 10 min at 72° C. After amplification, adenines were added to the 3′ ends of the PCR product as indicated by the manufacturers protocol and the adenylated product was cloned into the pGEM-T vector (Promega), to create plasmid pMJ1. […]

As to `Cc1c(C)c2c(c(C)c1O)CCC(C)(CCCC(C)CCCC(C)CCCC(C)C)O2` (stereo not drawn) [synthetic α-tocopherol, d,l-α-tocopherol], the “vitamin E activity” value in experiment [1] is on record as 1.1 IU/mg.

In the case of `C[C@](O)(CO)[C@H](O)CO` [ME, 2-C-methyl-D-erythritol], the “growth of strain on medium containing the substance” value in experiment [2] is reported as “grows on medium containing ME”.

As to `Cc1c(C)c2c(c(C)c1O)CC[C@@](C)(CCC[C@H](C)CCC[C@H](C)CCCC(C)C)O2` [d-α-tocopherol], the “vitamin E activity” value in experiment [1] is given as 1.49 IU/mg.

These data come from patent publication US7335815B2, “Nucleic acid sequences to proteins involved in isoprenoid synthesis” (Calgene LLC, priority 1999, dated 2008).
